The subject of assay [1] is Broccoli run-off transcript of the 251 bp T7 promoter-O1-Broccoli template (RNA, aptamer) GGCAAUUGUGAGCGGAUAACAAUUCUAGAUUGCCAUGUGUAUGUGGGAGACGGUCGGGUCCAGAUAUUCGUAUCUGUCGAGUAGAGUGUGGGCUCCCACAUACUCUGAUGAUCCUUCGGGAUCAUUCAUGGCAAGGAUCCG
Nature of the assay: fluorescence turn-on during in vitro transcription. Conditions: 25 mM NaCl, 8 mM MgCl2; 40 mM Tris-HCl pH 8.0, 2 mM spermidine, 5 mM DTT, 34 °C, 20 μM dye; NTPs, T7 RNAP present.

Assay [2] deals with 2xF30-Broccoli RNA (Bi), transcript of T7 promoter-Broccoli template without operator (RNA, aptamer) UUGCCAUGUGUAUGUGGGAGACGGUCGGGUCCAGAUAUUCGUAUCUGUCGAGUAGAGUGUGGGCUCCCACAUACUCUGAUGAUCCUUCGGGAUCAUUCAUGGCAA
Put plainly: fluorescence turn-on during in vitro transcription. Conditions: 25 mM NaCl, 8 mM MgCl2; 40 mM Tris-HCl pH 8.0, 2 mM spermidine, 5 mM DTT, 34 °C, 20 μM dye; NTPs, T7 RNAP present.

On to `CC1=N/C(=C\c2cc(F)c(O)c(F)c2)C(=O)N1CC(F)(F)F`, for which the binding result in assay [1] and in assay [2] was “yes” throughout.

Values taken from PMC11175446 (2024).
